Data: paper PMC12254266, “Multicolored sequential resonance energy transfer for detection of simultaneous ligand binding at G protein-coupled receptors” (Nature Communications, 2025)
Values joined by “and” are separate entries in the source; they are usually repeats but may differ in a detail not shown here. Equal values may be shown once.

Columns and labels:
[1] = biological target: FFA1 (Homo sapiens, UniProt O14842); experiment: Ca2+ mobilisation (Fura2) in Flp-In T-REx 293 cells expressing Nluc-FFA1, FFA1-Nluc or untagged FFA1; type: cell-based; set-up: expressed in transfected cells; settings: for pEC50: Ca2+ data, mean±SEM; for pEC50 / EMax: NR = No response; for Ca2+ Response as a % of T360 Response: single technical replicates; for EMax: percentage of response to 10 μM T360
Sequence of FFA1 (O14842 whole entry): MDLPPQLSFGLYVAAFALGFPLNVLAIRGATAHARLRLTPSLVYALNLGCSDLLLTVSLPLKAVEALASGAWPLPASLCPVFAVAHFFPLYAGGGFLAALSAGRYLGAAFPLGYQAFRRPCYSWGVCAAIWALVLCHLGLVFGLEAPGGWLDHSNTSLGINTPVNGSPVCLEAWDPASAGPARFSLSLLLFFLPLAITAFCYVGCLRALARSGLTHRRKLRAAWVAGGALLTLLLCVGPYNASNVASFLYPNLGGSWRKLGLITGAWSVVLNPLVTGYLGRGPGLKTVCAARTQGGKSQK
Procedure: Nluc-FFA1, FFA1-Nluc or untagged FFA1 Flp-In T-REx 293 cells were plated at 50,000 cells per well in poly-D-lysine coated black clear bottom 96-well plates. Cells were then cultured for 24 h until reaching confluency before culture medium was replaced with medium containing 100 ng/mL of doxycycline to induce receptor expression. Cells were cultured for a further 24 h before the assay. On the day of the assay culture medium was removed and replaced with medium containing 3 μM Fura2-AM Ca^2+ dye. […] Fura2 fluorescent emission at 520 nm following excitation with each of 340 and 380 nm was measured in regular intervals both before and after adding test compounds for a total of 90 s per well. Calcium responses were determined by taking the peak 340/380 ratio after first subtracting the ratios obtained prior to addition of test compound.

[2] = biological target: T1, Nluc-FFA1 (Homo sapiens, UniProt O14842); experiment: NanoBRET binding (saturation, competition, kinetics) at N terminal Nluc tagged FFA1; settings: for Specific BRET (690/450)%: Figure 4Ci; for Specific BRET (690/450)% / Specific BRET (540/450)%: technical duplicates; for Specific BRET (540/450)%: Figure 4Cii; for 'bottom' of the IC50 curve fit, Nano-BRET TUG-2591 / 'bottom' of the IC50 curve fit, Nano-BRET TUG-2597: percentage of binding in the absence of competing ligand; for 'bottom' of the IC50 curve fit, Nano-BRET TUG-2591: tracer TUG-2591 100 nM; for 'bottom' of the IC50 curve fit, Nano-BRET TUG-2597 / pIC50 Nano-BRET TUG-2597: tracer TUG-2597 […]; for pIC50 Nano-BRET TUG-2597: NBD/Nluc; for pKi Nano-BRET TUG-2597: using Kd TUG-2597 380 nM
T1 construct: expressed in transfected cells
T1 sequence (O14842 whole entry): as above

[3] = biological target: FFA1-Nluc (Homo sapiens, UniProt O14842); experiment: Bystander BRET internalisation assay, FFA1-Nluc in HEK293T cells; type: cell-based; set-up: expressed in transfected cells; host or cells: HEK293T (ATCC, CRL-3216), transient; settings: in words; up to 60 min
Sequence of FFA1-Nluc (O14842 whole entry): as above
Procedure: Cells were transfected using a reverse transfection protocol while plating into a poly-D-lysine coated white 96-well plates. Cells were plated at 60,000 cells with 100 ng of plasmid DNA and 0.6 µg of polyethyleneimine (PEI) per well. Cells were cultured for 24 h before washing with HBSS and incubating in HBSS at 37 °C for 30 min. NanoGlo substrate was added a final 1:800 dilution and plates incubated for 10 min at 37 °C. […] After 5 min of baseline measurements, readings were paused and test compounds added to the plate.

SMILES | pEC50 [1] | Ca2+ Response as a % of T360 Response ([1]; log[Ligand] -6) | Ca2+ Response as a % of T360 Response ([1]; log[Ligand] -6.5) | Ca2+ Response as a % of T360 Response ([1]; log[Ligand] -7) | Ca2+ Response as a % of T360 Response ([1]; log[Ligand] -8) | Ca2+ Response as a % of T360 Response ([1]; log[Ligand] -9) | EMax [1] [%] | Specific BRET (690/450)% ([2]; log[Ligand] -5) | Specific BRET (690/450)% ([2]; log[Ligand] -5.5) | Specific BRET (690/450)% ([2]; log[Ligand] -6) | Specific BRET (690/450)% ([2]; log[Ligand] -6.5) | Specific BRET (690/450)% ([2]; log[Ligand] -7) | Specific BRET (690/450)% ([2]; log[Ligand] -8) | Specific BRET (690/450)% ([2]; log[Ligand] -9) | Specific BRET (690/450)% ([2]; log[Ligand] -10) | Specific BRET (540/450)% ([2]; log[Ligand] -7) | Specific BRET (540/450)% ([2]; log[Ligand] -8) | Specific BRET (540/450)% ([2]; log[Ligand] -9) | Specific BRET (540/450)% ([2]; log[Ligand] -10) | 'bottom' of the IC50 curve fit, Nano-BRET TUG-2591 [2] [%] | other results
COc1ccc(C(=O)N(CC(C)(C)C)c2cccc(C)n2)c(N2CCC(COc3cccc(C(CC(=O)O)C4CC4)c3)CC2)c1.O=C(O)C(F)(F)F (stereo not shown) [Cpd 6h, reference compound] | 7.58±0.37 | 71.8152% and 70.2762% and 114.0711% and 118.1782% and 101.8675% and 96.5850% | 60.3759% and 123.2785% and 113.4233% and 101.5371% and 93.1451% | 63.1956% and 51.7459% and 118.1727% and 120.9922% and 92.4678% and 86.2833% | 10.9661% and -4.3988% and 87.5826% and 74.3785% and 6.7799% and 2.9748% | -2.3895% and -2.3898% and 3.1637% and 3.9796% and -0.4916% and 4.7706% | 108±8 | 154.01% and 159.82% and 184.44% and 164.18% and 149.89% and 140.91% | 149.18% and 149.96% and 186.01% and 169.50% and 140.81% and 140.26% | 148.97% and 147.78% and 172.23% and 173.39% and 141.21% and 145.62% | 146.95% and 143.16% and 174.27% and 175.78% and 147.71% and 149.19% | 142.54% and 138.75% and 174.07% and 180.89% and 144.33% and 137.24% | 121.15% and 120.06% and 152.10% and 144.46% and 121.71% and 120.62% | 105.22% and 101.22% and 121.39% and 115.73% and 104.79% and 106.52% | 100.55% and 99.45% and 103.65% and 96.35% and 96.40% and 103.60% | 19.25% and 26.02% and 25.79% and 30.80% and 33.39% and 36.04% | 119.18% and 117.93% and 79.82% and 76.64% and 93.10% and 100.29% | 109.78% and 127.71% and 86.42% and 90.20% and 105.18% and 118.46% | 94.36% and 105.64% and 98.39% and 101.61% and 82.28% and 117.72% | 160 | Ca2+ Response as a % of T360 Response ([1]; log[Ligand] -5): 84.6341% and 118.5422% and 131.5391% and 131.6815%; Ca2+ Response as a % of T360 Response ([1]; log[Ligand] -5.5): 110.3362% and 90.2944% and 104.2328% and 116.7691% and 104.8460% and 102.3011%; 'bottom' of the IC50 curve fit, Nano-BRET TUG-2597 [2]: -16%; pIC50 Nano-BRET TUG-2597 [2]: 7.2±0.03; pKi Nano-BRET TUG-2597 [2]: 7.5±0.03
COc1ccc(CCCC(C)(C)C)c(N2CCC(COc3cccc(C(CC(=O)O)C4CC4)c3)CC2)c1.O=C(O)C(F)(F)F (stereo not shown) [T360] | 7.48±0.31 | 107.28% and 92.72% and 101.13% and 98.87% and 101.25% and 98.75% | 78.71% and 83.08% and 86.23% and 89.07% and 107.10% and 103.71% | 50.40% and 57.83% and 53.05% and 49.34% and 105.47% and 92.83% | 4.55% and 3.96% and 1.45% and 1.23% and 56.26% and 55.08% | 6.44% and -16.92% and -0.13% and -0.73% and -0.82% and -0.55% | 105±5 | 144.71% and 144.91% and 150.40% and 149.82% and 134.29% and 145.90% | 150.41% and 165.34% and 156.87% and 151.43% and 153.00% and 148.40% | 147.37% and 160.23% and 150.08% and 152.06% and 150.91% and 153.01% | 152.25% and 156.48% and 155.51% and 156.07% and 157.69% and 151.71% | 145.58% and 149.69% and 148.14% and 147.21% and 151.85% and 147.91% | 131.96% and 136.95% and 136.24% and 131.47% and 126.78% and 129.57% | 110.80% and 118.14% and 114.71% and 107.71% and 113.55% and 115.30% | 99.19% and 105.01% and 94.99% and 98.91% and 101.09% and 100.81% | 53.44% and 33.59% and 38.71% and 49.07% and 47.92% and 48.08% and 44.12% and 39.90% | 84.61% and 81.81% and 70.02% and 81.70% and 81.41% and 76.64% and 80.12% | 105.73% and 99.36% and 90.61% and 103.73% and 98.31% and 99.33% and 93.77% | 104.20% and 95.80% and 91.09% and 108.91% and 101.37% and 98.63% and 98.32% and 101.68% | 150 | Ca2+ Response as a % of T360 Response ([1]; log[Ligand] -7.5): 52.48% and 51.74% and 26.53% and 33.96% and 89.83% and 84.58%; Ca2+ Response as a % of T360 Response ([1]; log[Ligand] -10): -18.12% and -11.48% and -0.62% and 0.09% and -1.11% and 0.64%; internalization of FFA1-Nluc [3]: No internalization; Specific BRET (540/450)% ([2]; log[Ligand] -6.5): 37.02% and 22.26% and 31.97% and 27.51% and 29.14% and 29.84% and 21.82% and 24.91%; 'bottom' of the IC50 curve fit, Nano-BRET TUG-2597 [2]: 5.3%; pIC50 Nano-BRET TUG-2597 [2]: 7.1±0.03; pKi Nano-BRET TUG-2597 [2]: 7.4±0.03
